According to publication PMC12736255, “Reinvestigating Pyrrol-2-One-Based Compounds: From Antimicrobial Agents to Promising Antitumor Candidates” (Pharmaceuticals, 2025):
Marks after values point to notes of the source that are not given here.

Tests used:
EKVX = assay: NCI-60 single-dose screen; type: cell-based, human; settings: 10^–5 M; for inhibition at 10 µM: Homo sapiens, read-out: GI (%)
Text: (§1) In the next step, all synthesized compounds were electronically submitted and accepted for testing to the National Cancer Institute (NCI) platform, for the single dose (10^−5 M) screening against a panel of 60 human tumor cell lines, representing leukemia, melanoma, and cancers of the lung, colon, central nervous system, ovary, kidney, prostate, and breast. The results are summarized in Table 2, with the best values highlighted in red (Figures S1–S14).

NCI-H226 [1] = assay: NCI-60 single-dose screen; type: cell-based, human; settings: NCI-H226, 10^–5 M; for inhibition at 10 µM: Homo sapiens, read-out: GI (%)
Text: as §1

HCC-2998 = assay: NCI-60 single-dose screen; type: cell-based; settings: Homo sapiens; HCC-2998, 10^–5 M; read-out: GI (%)
Procedure, shortened: (§2)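 Read-out is from the NCI-60 program: human tumor lines exposed to a single 10^−5 M dose of each compound.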

HL-60(TB) = assay: NCI-60 single-dose screen; type: cell-based; settings: Homo sapiens, 10^–5 M, read-out: GI (%)
Procedure, shortened: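 Screening was run by the National Cancer Institute at one dose (10^−5 M) in its 60-line human cancer panel.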

HOP-92 = assay: NCI-60 single-dose screen; type: cell-based; settings: Homo sapiens; HOP-92, 10^–5 M; read-out: GI (%)
Procedure, shortened: as §2

IGROV1 = assay: NCI-60 single-dose screen; type: cell-based; settings: Homo sapiens, IGROV-1; IGROV1, 10^–5 M; read-out: GI (%)
Procedure, shortened: as §2

K-562 = assay: NCI-60 single-dose screen; type: cell-based; settings: Homo sapiens, K562; K-562, 10^–5 M; read-out: GI (%)
Procedure, shortened: as §2

NCI-H322M = assay: NCI-60 single-dose screen; type: cell-based; settings: Homo sapiens, 10^–5 M, read-out: GI (%)
Procedure, shortened: as §2

NCI-H460 = assay: NCI-60 single-dose screen; type: cell-based; settings: Homo sapiens; NCI-H460, 10^–5 M; read-out: GI (%)
Procedure, shortened: as §2

OVCAR-8 = assay: NCI-60 single-dose screen; type: cell-based; settings: Homo sapiens; OVCAR-8, 10^–5 M; read-out: GI (%)
Procedure, shortened: as §2

SR = assay: NCI-60 single-dose screen; type: cell-based; settings: Homo sapiens, 10^–5 M, read-out: GI (%)
Procedure, shortened: as §2

SW-620 [2] = assay: NCI-60 single-dose screen; type: cell-based; settings: Homo sapiens; SW-620, 10^–5 M; read-out: GI (%)
Procedure, shortened: as §2

T-47D [3] = assay: NCI-60 single-dose screen; type: cell-based; settings: Homo sapiens, T47D, 10^–5 M, read-out: GI (%)
Procedure, shortened: as §2

TK-10 [4] = assay: NCI-60 single-dose screen; type: cell-based; settings: Homo sapiens; TK-10, 10^–5 M; read-out: GI (%)
Procedure, shortened: as §2

UACC-62 = assay: NCI-60 single-dose screen; type: cell-based; settings: Homo sapiens; UACC-62, 10^–5 M; read-out: GI (%)
Procedure, shortened: as §2

NCI-H226 [5] = assay: NCI-60 5-dose screen; type: cell-based, human
HOP-62 = assay: NCI-60 5-dose screen; type: cell-based, human
HT29 = assay: NCI-60 5-dose screen; type: cell-based, human
SW-620 [6] = assay: NCI-60 5-dose screen; type: cell-based, human
SNB-75 = assay: NCI-60 5-dose screen; type: cell-based, human
M14 = assay: NCI-60 5-dose screen; type: cell-based, human
SK-MEL-2 = assay: NCI-60 5-dose screen; type: cell-based, human
SK-OV-3 = assay: NCI-60 5-dose screen; type: cell-based, human
CAKI-1 = assay: NCI-60 5-dose screen; type: cell-based, human
TK-10 [7] = assay: NCI-60 5-dose screen; type: cell-based, human
MDA-MB-231/ATCC = assay: NCI-60 5-dose screen; type: cell-based, human
BT-549 = assay: NCI-60 5-dose screen; type: cell-based, human
T-47D [8] = assay: NCI-60 5-dose screen; type: cell-based, human
PC-3 = assay: NCI-60 5-dose screen; type: cell-based, human
[9] = Homo sapiens, read-out: LC50 (the source's name)

Q: With `O=C1C(Nc2ccc(I)cc2)=CC(c2ccc(C(F)(F)F)cc2)N1c1ccc(I)cc1` (centres unmarked) [3e] as the compound, how does the “GI (%)” value (EKVX) read?
A: 100 ^d %

Q: What about the inhibition at 10 µM (EKVX) of the same compound?
A: 100%

Q: And the inhibition at 10 µM (NCI-H226 [1])?
A: 100%

Q: What about the “GI (%)” value (NCI-H226 [1]) of the same compound?
A: 100 ^e %

Q: What about the inhibition at 10 µM (HCC-2998) of the same compound?
A: 0%

Q: What about the inhibition at 10 µM (HL-60(TB)) of the same compound?
A: 51%

Q: And the inhibition at 10 µM (HOP-92)?
A: 62%

Q: And the inhibition at 10 µM (IGROV1)?
A: 12%

Q: And the inhibition at 10 µM (K-562)?
A: 16%

Q: And the inhibition at 10 µM (NCI-H322M)?
A: 97%

Q: What about the inhibition at 10 µM (NCI-H460) of the same compound?
A: 43%

Q: What about the inhibition at 10 µM (OVCAR-8) of the same compound?
A: 43%

Q: And the inhibition at 10 µM (SR)?
A: 99%

Q: What about the inhibition at 10 µM (SW-620 [2]) of the same compound?
A: 47%

Q: What about the inhibition at 10 µM (T-47D [3]) of the same compound?
A: 100%

Q: And the inhibition at 10 µM (TK-10 [4])?
A: 100%

Q: And the inhibition at 10 µM (UACC-62)?
A: 12%

Q: And the TGI (NCI-H226 [5])?
A: >100 µM

Q: And the GI50 (NCI-H226 [5]; Homo sapiens)?
A: 8.48 µM

Q: And the CC50 (NCI-H226 [5]; [9])?
A: > 100 µM

Q: And the TGI (HOP-62)?
A: >100 µM

Q: And the GI50 (HOP-62; Homo sapiens)?
A: > 100 µM

Q: What about the CC50 (HOP-62; [9]) of the same compound?
A: > 100 µM

Q: What about the TGI (HT29) of the same compound?
A: >100 µM

Q: And the GI50 (HT29; Homo sapiens, HT-29)?
A: > 100 µM

Q: And the CC50 (HT29; Homo sapiens, HT-29, read-out: LC50 (the source's name))?
A: > 100 µM

Q: What about the TGI (SW-620 [6]) of the same compound?
A: >100 µM

Q: What about the GI50 (SW-620 [6]; Homo sapiens) of the same compound?
A: > 100 µM

Q: What about the CC50 (SW-620 [6]; [9]) of the same compound?
A: > 100 µM

Q: What about the TGI (SNB-75) of the same compound?
A: 5.06 µM

Q: And the GI50 (SNB-75; Homo sapiens)?
A: 2.6 µM

Q: What about the CC50 (SNB-75; [9]) of the same compound?
A: 9.85 µM

Q: And the TGI (M14)?
A: >100 µM

Q: And the GI50 (M14; Homo sapiens)?
A: 8.94 µM

Q: And the CC50 (M14; [9])?
A: > 100 µM

Q: What about the TGI (SK-MEL-2) of the same compound?
A: >100 µM

Q: What about the GI50 (SK-MEL-2; Homo sapiens) of the same compound?
A: > 100 µM

Q: What about the CC50 (SK-MEL-2; [9]) of the same compound?
A: > 100 µM

Q: And the TGI (SK-OV-3)?
A: >100 µM

Q: What about the GI50 (SK-OV-3; Homo sapiens) of the same compound?
A: > 100 µM

Q: What about the CC50 (SK-OV-3; [9]) of the same compound?
A: > 100 µM

Q: What about the TGI (CAKI-1) of the same compound?
A: >100 µM

Q: What about the GI50 (CAKI-1; Homo sapiens) of the same compound?
A: 3.72 µM

Q: What about the CC50 (CAKI-1; [9]) of the same compound?
A: > 100 µM

Q: And the TGI (TK-10 [7])?
A: >100 µM

Q: And the GI50 (TK-10 [7]; Homo sapiens)?
A: > 100 µM

Q: And the CC50 (TK-10 [7]; [9])?
A: > 100 µM

Q: What about the TGI (MDA-MB-231/ATCC) of the same compound?
A: >100 µM

Q: What about the GI50 (MDA-MB-231/ATCC; Homo sapiens) of the same compound?
A: 5.36 µM

Q: And the CC50 (MDA-MB-231/ATCC; [9])?
A: > 100 µM

Q: What about the TGI (BT-549) of the same compound?
A: >100 µM

Q: What about the GI50 (BT-549; Homo sapiens) of the same compound?
A: 9.61 µM

Q: And the CC50 (BT-549; [9])?
A: > 100 µM

Q: What about the TGI (T-47D [8]) of the same compound?
A: 7.57 µM

Q: What about the GI50 (T-47D [8]; Homo sapiens, T47D) of the same compound?
A: 2.74 µM

Q: What about the CC50 (T-47D [8]; Homo sapiens, T47D, read-out: LC50 (the source's name)) of the same compound?
A: > 100 µM

Q: What about the TGI (PC-3) of the same compound?
A: >100 µM

Q: What about the GI50 (PC-3; Homo sapiens) of the same compound?
A: 9.99 µM

Q: What about the CC50 (PC-3; [9]) of the same compound?
A: > 100 µM

Q: Which inhibition at 10 µM (EKVX) does the source give for `O=C1C(Nc2ccc(I)cc2)=CC(c2ccccc2)N1c1ccc(I)cc1` (centres unmarked) [3a] here?
A: 37%

Q: What about the inhibition at 10 µM (NCI-H226 [1]) of the same compound?
A: 4%

Q: And the inhibition at 10 µM (HCC-2998)?
A: 0%

Q: And the inhibition at 10 µM (HL-60(TB))?
A: 0%

Q: And the inhibition at 10 µM (HOP-92)?
A: 0%

Q: What about the inhibition at 10 µM (IGROV1) of the same compound?
A: 16%

Q: And the inhibition at 10 µM (K-562)?
A: 0%

Q: What about the inhibition at 10 µM (NCI-H322M) of the same compound?
A: 17%

Q: And the inhibition at 10 µM (NCI-H460)?
A: 1%

Q: And the inhibition at 10 µM (OVCAR-8)?
A: 15%

Q: What about the inhibition at 10 µM (SR) of the same compound?
A: 44%

Q: And the inhibition at 10 µM (SW-620 [2])?
A: 0%

Q: And the inhibition at 10 µM (T-47D [3])?
A: 34%

Q: And the inhibition at 10 µM (TK-10 [4])?
A: 12%

Q: What about the inhibition at 10 µM (UACC-62) of the same compound?
A: 0%

Q: How did the inhibition at 10 µM (EKVX) turn out when `O=C1C(Nc2ccc(I)cc2)=CC(c2ccc(F)cc2)N1c1ccc(I)cc1` (centres unmarked) [3b] was run?
A: 24%

Q: And the inhibition at 10 µM (NCI-H226 [1])?
A: 4%

Q: What about the inhibition at 10 µM (HCC-2998) of the same compound?
A: 0%

Q: What about the inhibition at 10 µM (HL-60(TB)) of the same compound?
A: 35%

Q: And the inhibition at 10 µM (HOP-92)?
A: 36%

Q: What about the inhibition at 10 µM (IGROV1) of the same compound?
A: 7%

Q: What about the inhibition at 10 µM (K-562) of the same compound?
A: 5%

Q: What about the inhibition at 10 µM (NCI-H322M) of the same compound?
A: 10%

Q: What about the inhibition at 10 µM (NCI-H460) of the same compound?
A: 17%

Q: What about the inhibition at 10 µM (OVCAR-8) of the same compound?
A: 8%

Q: What about the inhibition at 10 µM (SR) of the same compound?
A: 92%

Q: What about the inhibition at 10 µM (SW-620 [2]) of the same compound?
A: 24%

Q: And the inhibition at 10 µM (T-47D [3])?
A: 32%

Q: What about the inhibition at 10 µM (TK-10 [4]) of the same compound?
A: 27%

Q: What about the inhibition at 10 µM (UACC-62) of the same compound?
A: 0%

Q: Which results are given for `O=C1C(Nc2ccc(I)cc2)=CC(c2ccc(Cl)cc2)N1c1ccc(I)cc1` (centres unmarked) [3c]?
A: inhibition at 10 µM (EKVX): 37%; inhibition at 10 µM (NCI-H226 [1]): 62%; inhibition at 10 µM (HCC-2998): 0%; inhibition at 10 µM (HL-60(TB)): 0%; inhibition at 10 µM (HOP-92): 27%; inhibition at 10 µM (IGROV1): 16%; inhibition at 10 µM (K-562): 10%; inhibition at 10 µM (NCI-H322M): 0%; inhibition at 10 µM (NCI-H460): 7%; inhibition at 10 µM (OVCAR-8): 11%; inhibition at 10 µM (SR): 41%; inhibition at 10 µM (SW-620 [2]): 12%; inhibition at 10 µM (T-47D [3]): 48%; inhibition at 10 µM (TK-10 [4]): 1%; inhibition at 10 µM (UACC-62): 5%
